The test system of this assay is HCT 116 cells. Nature of the assay: CellTiter-Glo Assay in HCT 116 Cells. It counts as cell-based. The conditions noted are these: HCT 116 human colon carcinoma cells, 5 days (120 h) incubation, CellTiter-Glo luminescence, tested in triplicate. From the text: CellTiter-Glo™ Assay in HCT 116 Cells
The CellTiter-Glo™ Luminescent Cell Viability Assay (Promega) is a homogeneous method of determining the number of viable cells in culture based on quantitation of the ATP present, which signals the presence of metabolically active cells.
HCT 116 cells (human colon carcinoma, ATCC-No. CCl-247) were cultivated in RPMI 1640 medium with GlutaMAX™ I (Invitrogen, Cat-No. 61870-010), 5% Fetal Calf Serum (FCS, Sigma Cat-No. F4135 (FBS)); 100 Units/ml penicillin/100 μg/ml streptomycin (=Pen/Strep from Invitrogen Cat. No. 15140). For the assay the cells were seeded in 384 well plates, 1000 cells per well, in the same medium. The next day the test compounds were added in various concentrations ranging from 30 μM to 0.0015 μM (10 concentrations, 1:3 diluted). After 5 days the CellTiter-Glo™ assay was done according to the instructions of the manufacturer (CellTiter-Glo™ Luminescent Cell Viability Assay, from Promega). In brief: the cell-plate was equilibrated to room temperature for approximately 30 minutes and than the CellTiter-Glo™ reagent was added. The contents were carefully mixed for 15 minutes to induce cell lysis. After 45 minutes the luminescent signal was measured in Victor 2, (scanning multiwell spectrophotometer, Wallac).
• Medium: RPMI 1640 with GlutaMAX™ I (Invitrogen, Cat-Nr. 61870), 5% FCS (Sigma Cat.-No. F4135), Pen/Strep (Invitrogen, Cat No. 15140). • HCT116 (ATCC-No. CCl-247): 1000 cells in 60 μl per well of 384 well plate (Greiner 781098, μClear-plate white) • After seeding incubate plates 24 h at 37° C., 5% CO2 2nd. Day: Induction (Treatment with Compounds, 10 Concentrations):
In order to achieve a final concentration of 30 μM as highest concentration 3.5 μl of 10 mM compound stock solution were added directly to 163 μl media. Then step e) of the dilution procedure described below, was followed.
A general note: In ATP-based viability assays light output follows the ATP content of the culture.
A word on the IC50: it is the midpoint of a concentration-inhibition curve. A higher IC50 goes with lower potency. `O=C(Nc1cccc2nc(-c3c(NCc4ccccc4)cc[nH]c3=O)[nH]c12)c1ccccc1Cl` [Example A-17, N-[2-(4-Benzylamino-2-oxo-1,2-dihydro-pyridin-3-yl)-3H-benzoimidazol-4-yl]-2-chloro-benzamide]: the IC50 is 1000 to 15000 nM. The result for `O=C(Nc1cccc2nc(-c3c(NC[C@@H](O)c4ccccc4)cc[nH]c3=O)[nH]c12)C1CC1` [Example B-8, Cyclopropanecarboxylic acid {2-[4-((S)-2-hydroxy-2-phenyl-ethylamino)-2-oxo-1,2-dihydro-pyridin-3-yl]-3H-benzoimidazol-4-yl}-amide] reads 1000 to 15000 nM. The result for `O=C(Nc1cccc2nc(-c3c(NCc4ccccn4)cc[nH]c3=O)[nH]c12)c1ccccc1` [Example A-5, N-(2-{2-oxo-4-[(pyridin-2-ylmethyl)-amino]-1,2-dihydro-pyridin-3-yl}-3H-benzoimidazol-4-yl)-benzamide] reads 1000 to 15000 nM; that for `COc1ccc(NC(=O)Nc2cccc3nc(-c4c(NC[C@@H](O)c5ccccc5)cc[nH]c4=O)[nH]c23)cc1` [Example D-2, 1-{2-[4-((S)-2-Hydroxy-2-phenyl-ethylamino)-2-oxo-1,2-dihydro-pyridin-3-yl]-3H-benzoimidazol-4-yl}-3-(4-methoxy-phenyl)-urea], 1000 to 15000 nM; that for `C=CCOC(=O)Nc1cccc2nc(-c3c(NC[C@@H](O)c4ccccc4)cc[nH]c3=O)[nH]c12` [Example C-5, {2-[4-((S)-2-Hydroxy-2-phenyl-ethylamino)-2-oxo-1,2-dihydro-pyridin-3-yl]-3H-benzoimidazol-4-yl}-carbamic acid allyl ester], 2780 nM.

As to `O=C(Nc1cccc2nc(-c3c(NC[C@@H](O)c4ccccc4)cc[nH]c3=O)[nH]c12)c1ccco1` [Example B-19, Furan-2-carboxylic acid {2-[4-((S)-2-hydroxy-2-phenyl-ethylamino)-2-oxo-1,2-dihydro-pyridin-3-yl]-3H-benzoimidazol-4-yl}-amide], the IC50 fell in the range of 1000 to 15000 nM. For `COc1ccccc1C(=O)Nc1cccc2nc(-c3c(NCc4ccccc4)cc[nH]c3=O)[nH]c12` [Example A-16, N-[2-(4-Benzylamino-2-oxo-1,2-dihydro-pyridin-3-yl)-3H-benzoimidazol-4-yl]-2-methoxy-benzamide], the IC50 lay in the range of 1000 to 15000 nM. For the compound `O=C(Nc1cccc(F)c1)Nc1cccc2nc(-c3c(NC[C@@H](O)c4ccccc4)cc[nH]c3=O)[nH]c12` [Example D-1, 1-(3-Fluoro-phenyl)-3-{2-[4-((S)-2-hydroxy-2-phenyl-ethylamino)-2-oxo-1,2-dihydro-pyridin-3-yl]-3H-benzoimidazol-4-yl}-urea], the IC50 lay in the range of 1000 to 15000 nM.

Regarding `COc1ccc(OC(=O)Nc2cccc3nc(-c4c(NC[C@@H](O)c5ccccc5)cc[nH]c4=O)[nH]c23)cc1` [Example C-1, {2-[4-((S)-2-Hydroxy-2-phenyl-ethylamino)-2-oxo-1,2-dihydro-pyridin-3-yl]-3H-benzoimidazol-4-yl}-carbamic acid 4-methoxy-phenyl ester], the IC50 lay within 1000 to 15000 nM.

`COCC(=O)Nc1cccc2nc(-c3c(NC[C@@H](O)c4ccccc4)cc[nH]c3=O)[nH]c12` [Example B-13, N-{2-[4-((S)-2-Hydroxy-2-phenyl-ethylamino)-2-oxo-1,2-dihydro-pyridin-3-yl]-3H-benzoimidazol-4-yl}-2-methoxy-acetamide] had an IC50 of 1000 to 15000 nM. The figure for `COc1ccc(C(=O)Nc2cccc3nc(-c4c(NCc5ccccn5)cc[nH]c4=O)[nH]c23)cc1` [Example A-6, 4-Methoxy-N-(2-{2-oxo-4-[(pyridin-2-ylmethyl)-amino]-1,2-dihydro-pyridin-3-yl}-3H-benzoimidazol-4-yl)-benzamide] is 1000 to 15000 nM.

As for `O=C(Nc1cccc2nc(-c3c(NC[C@@H](O)c4ccccc4)cc[nH]c3=O)[nH]c12)c1cccc(C(F)(F)F)c1` [Example B-5, N-{2-[4-((S)-2-Hydroxy-2-phenyl-ethylamino)-2-oxo-1,2-dihydro-pyridin-3-yl]-3H-benzoimidazol-4-yl}-3-trifluoromethyl-benzamide], the IC50 lay within 1000 to 15000 nM. `O=C(Nc1cccc2nc(-c3c(NC[C@@H](O)c4ccccc4)cc[nH]c3=O)[nH]c12)c1ccccc1F` [Example B-9, 2-Fluoro-N-{2-[4-((S)-2-hydroxy-2-phenyl-ethylamino)-2-oxo-1,2-dihydro-pyridin-3-yl]-3H-benzoimidazol-4-yl}-benzamide] yielded an IC50 of 1000 to 15000 nM.

As for `O=C(Nc1cccc2nc(-c3c(NCC(O)c4ccccc4)cc[nH]c3=O)[nH]c12)c1cccc(Cl)c1` (centres unmarked) [Example A-11, 3-Chloro-N-[2-[4-(2-hydroxy-2-phenyl-ethylamino)-2-oxo-1,2-dihydro-pyridin-3-yl]-3H-benzoimidazol-4-yl]-benzamide], the IC50 lay within 1000 to 15000 nM. The figure for `N#Cc1cccc(C(=O)Nc2cccc3[nH]c(-c4c(NCc5ccccn5)cc[nH]c4=O)nc23)c1` [Example A-1, 3-Cyano-N-(2-[2-oxo-4-1 (pyridin-2-ylmethyl)-amino]-1,2-dihydro-pyridin-1H-benzoimidazol-4-yl)-benzamide] is 1360 nM.

As to `O=C(Cc1ccccc1)Nc1cccc2nc(-c3c(NC[C@@H](O)c4ccccc4)cc[nH]c3=O)[nH]c12` [Example B-1, N-{2-[4-((S)-2-Hydroxy-2-phenyl-ethylamino)-2-oxo-1,2-dihydro-pyridin-3-yl]-3H-benzoimidazol-4-yl}-2-phenyl-acetamide], the IC50 was in the range of 1000 to 15000 nM. The figure for `O=C(Nc1cccc2nc(-c3c(NCc4ccccc4)cc[nH]c3=O)[nH]c12)c1ccccc1` [Example A-4, N-[2-(4-Benzylamino-2-oxo-1,2-dihydro-pyridin-3-yl)-3H-benzoimidazol-4-yl]-benzamide] is 1000 to 15000 nM.

The compound `O=C(Nc1cccc2nc(-c3c(NCc4ccccc4)cc[nH]c3=O)[nH]c12)c1ccc(Cl)cc1` [Example A-18, N-[2-(4-Benzylamino-2-oxo-1,2-dihydro-pyridin-3-yl)-3H-benzoimidazol-4-yl]-4-chloro-benzamide] displayed an IC50 of 1000 to 15000 nM.

The compound `O=C(Nc1ccccc1Cl)Nc1cccc2[nH]c(-c3c(NC[C@@H](O)c4cccc(Cl)c4)cc[nH]c3=O)nc12` [Example D-8, 1-(2-Chloro-phenyl)-3-(2-{4-[(S)-2-(3-chloro-phenyl)-2-hydroxy-ethylamino]-2-oxo-1,2-dihydro-pyridin-3-yl}-1H-benzoimidazol-4-yl)-urea] registered a concentration for half-maximal inhibition (IC50) of 1000 to 15000 nM. In turn, `N#Cc1cccc(C(=O)Nc2cccc3nc(-c4c(NC[C@@H](O)c5ccccc5)cc[nH]c4=O)[nH]c23)c1` [Example B-12, 3-Cyano-N-{2-[4-((S)-2-hydroxy-2-phenyl-ethylamino)-2-oxo-1,2-dihydro-pyridin-3-yl]-3H-benzoimidazol-4-yl}-benzamide] came in with a concentration for half-maximal inhibition (IC50) of 1000 to 15000 nM. The figure for `O=C(NCc1ccccc1)Nc1cccc2nc(-c3c(NC[C@@H](O)c4ccccc4)cc[nH]c3=O)[nH]c12` [Example D-7, 1-Benzyl-3-{2-[4-((S)-2-hydroxy-2-phenyl-ethylamino)-2-oxo-1,2-dihydro-pyridin-3-yl]-3H-benzoimidazol-4-yl}-urea] is 1000 to 15000 nM; for `O=C(Nc1ccc(OC(F)(F)F)cc1)Nc1cccc2nc(-c3c(NC[C@@H](O)c4ccccc4)cc[nH]c3=O)[nH]c12` [Example D-4, 1-{2-[4-((S)-2-Hydroxy-2-phenyl-ethylamino)-2-oxo-1,2-dihydro-pyridin-3-yl]-3H-benzoimidazol-4-yl}-3-(4-trifluoromethoxy-phenyl)-urea] it is 1000 to 15000 nM. The result for `COCCOC(=O)Nc1cccc2nc(-c3c(NC[C@@H](O)c4ccccc4)cc[nH]c3=O)[nH]c12` [Example C-2, {2-[4-((S)-2-Hydroxy-2-phenyl-ethylamino)-2-oxo-1,2-dihydro-pyridin-3-yl]-3H-benzoimidazol-4-yl}-carbamic acid 2-methoxy-ethyl ester] reads 1000 to 15000 nM; that for `O=C(COc1ccccc1)Nc1cccc2nc(-c3c(NC[C@@H](O)c4ccccc4)cc[nH]c3=O)[nH]c12` [Example B-6, N-{2-[4-((S)-2-Hydroxy-2-phenyl-ethylamino)-2-oxo-1,2-dihydro-pyridin-3-yl]-3H-benzoimidazol-4-yl}-2-phenoxy-acetamide], 1000 to 15000 nM; that for `O=C(Nc1cccc2nc(-c3c(NC[C@@H](O)c4ccccc4)cc[nH]c3=O)[nH]c12)c1ccc(F)cc1` [Example A-12, 4-Fluoro-N-{2-[4-((S)-2-hydroxy-2-phenyl-ethylamino)-2-oxo-1,2-dihydro-pyridin-3-yl]-3H-benzoimidazol-4-yl}-benzamide], 1000 to 15000 nM. The figure for `O=C(Nc1cccc2nc(-c3c(NCc4ccccn4)cc[nH]c3=O)[nH]c12)c1ccc(Cl)cc1` [Example A-7, 4-Chloro-N-(2-{2-oxo-4-[(pyridin-2-ylmethyl)-amino]-1,2-dihydro-pyridin-3-yl}-3H-benzoimidazol-4-yl)-benzamide] is 1000 to 15000 nM.
